These results are taken from patent US20200246284A1 (Academia Sinica, priority 2015, published 2020).

Each structure is given as a SMILES string. Read-outs that look alike come from different tables or passages of the source.

Data set [1] concerns CB CD34+ cells (+FCS). Briefly: Cytotoxicity normal tissue. Type of data set: cell-based, human.
The test system of data set [2] is CCRF-CEM. Briefly: Cytotoxicity leukemia. The data set is classed as cell-based, human.
The subject of data set [3] is H526 xenograft. In words: SCLC H526 xenograft in nude mice. Type of data set: in vivo, mouse. Particulars: 40 mg/kg i.v.
In data set [4] the test system is DLBCL (GBC) cell lines. Briefly: Combination of BO-1055 with PUH71, TT46, bortezomib, doxorubicin (Table 25). Particulars: Homo sapiens. Type of data set: cell-based.
Data set [5] concerns U2932. Particulars: human.
Procedure: After 72 hours, the cultures were pulsed with Alamar Blue overnight, and the fluorescent intensity of resulted cultures was measured by a Synergy H1 plate-reader (BioTek Inc).
Data set [6] relates to Farage. In words: cells. As to conditions: Homo sapiens, read-out: cytotoxicity IC50.
The subject of data set [7] is nude mice bearing prostate 22Rv/HL2. In words: Blood chemistry, 22Rv/HL2 xenograft mice. Particulars: 24 hrs after last treatment.
Data set [8] has as its system nude mice bearing prostate 22Rv/HL2 tumor xenografts. In words: Pathological examination of organs and body weight, 22Rv/HL2 xenograft mice.
Data set [9] relates to NOSE ovarian epithelium. The data set is classed as cell-based, human.
For data set [10], the system named is H1395. Type of data set: cell-based, human.
In data set [11] the test system is H23. The data set is classed as cell-based, human.
The subject of data set [12] is PC9. Type of data set: cell-based, human.
Data set [13] has as its system H128. Briefly: Cytotoxicity SCLC 72 hr alamar blue. The data set is classed as cell-based, human. On the technique in general: The colour change of resazurin is a common sign of viable cells or microbes.
Data set [14] concerns H146. Briefly: Cytotoxicity SCLC 72 hr alamar blue. The data set is classed as cell-based, human.
Data set [15] deals with H417. Briefly: Cytotoxicity SCLC 72 hr alamar blue. Type of data set: cell-based, human.

By IC50 is commonly meant the concentration needed to halve the response being measured. On to `CN(C)CCNC(=O)c1cccc(NC(=O)Nc2ccc(N(CCCl)CCCl)cc2)c1` [BO-1055, Ureidomustine], for which the IC50 was over 10 µM in data set [1] (Homo sapiens, CB CD34+ cells, +FCS); 9.9 to 10.2 µM in data set [1] (Homo sapiens, normal CB CD34+, FBS/FCS or serum free); 8.5 to 10.5 µM in data set [1] (normal CB CD34+, FBS/FCS or serum free); 0.13 ± 0.002 µM in data set [2]; 5.85 µM in data set [4] (KARPAS-422, read-out: IC50 single agent); 0.287 µM in data set [4] (OCI-LY19, read-out: IC50 single agent). The IC50 was found to be 0.224 µM in [4] (OCI-Ly8, read-out: IC50 single agent); 0.608 µM in [4] (OCI-Ly18, read-out: IC50 single agent); 1.95 µM in data set [4] (SU-DHL-4, read-out: IC50 single agent); 4.14 µM in data set [4] (SU-DHL-5, read-out: IC50 single agent); 5.93 µM in data set [4] (SU-DHL-6, read-out: IC50 single agent); 8.95 µM in data set [4] (Toledo, read-out: IC50 single agent). Moreover, the IC50 in data set [4] (read-out: IC50 single agent) was found to be 3.19 µM; in data set [5], 2.22 µM; in [6] it was 0.44 µM. The “complete remission (CR)” value in data set [3] (28 d) is 3/4; in data set [3] (32 d), 2/4; in data set [3] (77 d) it was 1/4. The molecule also gave an ALT in [7] of 56.83 U/L. The AST in data set [7] amounted to 102.17 U/L. Besides, the BUN in data set [7] is listed as 37.23 mg/dL. Moreover, the CREA in [7] amounted to 0.38 mg/dL. This molecule gave a UA in [7] of 3.73 mg/dL. The average body-weight entry in data set [8] (after cessation of treatment) is given as “recovered on day 35-40”. For the same molecule, the “pathological change in heart, liver, spleen, lung and kidney” value in data set [8] (day 42 after onset of drug administration) is recorded as “no apparent pathological change”.
With `N.N.[Cl][Pt][Cl]` [Cisplatin], the IC50 is at least 25 µM in [9]; at least 15 µM in [10]; 2.5 µM in data set [11]; 8.12 µM in data set [12]; 4.79 µM in data set [13]; 3.77 µM in data set [14]. The same molecule returned an IC50 in [15] of 2.01 µM.
